Calls of active or inactive are those of the source.
Columns and labels:
HeLa = experiment: HeLa cell cytotoxicity, dose response, cytotoxicity control for MITF activator project, CellTiter-Glo luminescence, cherry-pick samples (AID 540259); assay type: functional, cell-based; settings: Homo sapiens
[1] = target: T1, Voltage-gated N-type calcium channel alpha-1B subunit/Amyloid beta A4 precursor protein-binding family A member 1 (Homo sapiens, UniProt Q00975+Q02410); assay type: protein assay
[2] = target: T1, Voltage-gated N-type calcium channel alpha-1B subunit/Amyloid beta A4 precursor protein-binding family A member 1; assay type: protein assay; remark: listed apart in the source
Prothrombin = Prothrombin (Homo sapiens, UniProt P00734); experiment: Thrombin 1536 HTS Dose Response Confirmation. [Related pubchem assays: 1046 (Thrombin 1536 HTS; hits were confirmed in this assay)]; assay type: functional
[3] = target: T2, Calpain-2 catalytic subunit (Sus scrofa, UniProt P43367); experiment: pig calpain II inhibitor potency, dose response, biochemical, fluorogenic peptide substrate (AID 1420); assay type: functional
T2 sequence (P43367 whole entry): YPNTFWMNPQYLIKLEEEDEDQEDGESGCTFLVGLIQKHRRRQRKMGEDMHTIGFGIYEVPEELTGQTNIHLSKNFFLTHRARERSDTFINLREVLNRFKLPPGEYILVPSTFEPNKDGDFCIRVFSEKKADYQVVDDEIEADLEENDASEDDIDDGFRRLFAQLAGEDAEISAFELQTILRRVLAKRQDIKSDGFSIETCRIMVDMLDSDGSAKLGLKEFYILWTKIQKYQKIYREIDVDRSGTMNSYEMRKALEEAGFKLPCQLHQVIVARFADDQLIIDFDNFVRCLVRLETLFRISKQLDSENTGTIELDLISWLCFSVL

Cytochrome P450 2C9 = Cytochrome P450 2C9 (Homo sapiens, UniProt P11712)
[4] = target: Voltage-dependent T-type calcium channel subunit alpha-1H (Homo sapiens, UniProt O95180); assay type: functional;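 note: channel activity triggered by adding a high calcium stimulation buffer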
Cytochrome P450 3A4 = Cytochrome P450 3A4 (Homo sapiens, UniProt P08684); settings: Potency;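 note: confirmatory qHTS run detecting inhibitors and substrates of CYP3A4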
Chain of Cytochrome P450 3A4 (P08684 whole entry): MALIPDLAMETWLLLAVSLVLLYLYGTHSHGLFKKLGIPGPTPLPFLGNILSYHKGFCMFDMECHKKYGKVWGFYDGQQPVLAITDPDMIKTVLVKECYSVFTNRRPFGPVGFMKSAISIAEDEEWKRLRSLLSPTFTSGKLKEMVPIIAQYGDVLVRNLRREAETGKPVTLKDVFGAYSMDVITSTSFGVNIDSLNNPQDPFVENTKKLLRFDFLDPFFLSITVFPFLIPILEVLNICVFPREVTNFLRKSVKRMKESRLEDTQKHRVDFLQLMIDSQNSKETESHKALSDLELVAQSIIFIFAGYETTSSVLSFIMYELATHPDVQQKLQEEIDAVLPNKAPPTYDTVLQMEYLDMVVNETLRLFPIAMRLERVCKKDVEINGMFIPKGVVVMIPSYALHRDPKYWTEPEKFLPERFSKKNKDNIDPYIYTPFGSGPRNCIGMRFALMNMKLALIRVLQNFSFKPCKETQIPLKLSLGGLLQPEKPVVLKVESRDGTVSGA

[5] = target: Heat shock protein HSP 90-alpha (Homo sapiens, UniProt P07900); assay type: functional, organism-based
[6] = Luminescence Cell-Based Dose Confirmation HTS to Identify Activators of 5'UTR Stem-Loop Driven Alpha-Synuclein mRNA Translation in H4 Neuroglioblastoma Cells. [Related pubchem assays: 1829 (Project Summary), 1814 (Primary HTS)]; assay type: functional
[7] = Luminescence Cell-Based Dose Response HTS to Identify Activators of Luciferase Translation or Activity in H4 […] Cells. [Related pubchem assays: 1829 (Project Summary), 1814 (Primary HTS)]; assay type: functional
H4 = experiment: Luminescence Cell-Based Dose Response HTS to Identify Activators of 5'UTR Stem-Loop Driven Prion Protein mRNA Translation in H4 Neuroglioblastoma Cells. [Related pubchem assays: 1829 (Project Summary), 1814 (Primary HTS)]; assay type: functional; settings: Homo sapiens
Paired box protein Pax-8 = Paired box protein Pax-8 (Homo sapiens, UniProt Q06710); experiment: inhibitors of PAX8-driven TPO luciferase reporter, dose response, RMG-I cells, cherry-pick (AID 687027); assay type: functional, cell-based;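 note: luciferase reporter driven by Pax8 target thyroperoxidase promoter measured by SteadyGlo luminescence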
Chain of Paired box protein Pax-8 (Q06710 whole entry): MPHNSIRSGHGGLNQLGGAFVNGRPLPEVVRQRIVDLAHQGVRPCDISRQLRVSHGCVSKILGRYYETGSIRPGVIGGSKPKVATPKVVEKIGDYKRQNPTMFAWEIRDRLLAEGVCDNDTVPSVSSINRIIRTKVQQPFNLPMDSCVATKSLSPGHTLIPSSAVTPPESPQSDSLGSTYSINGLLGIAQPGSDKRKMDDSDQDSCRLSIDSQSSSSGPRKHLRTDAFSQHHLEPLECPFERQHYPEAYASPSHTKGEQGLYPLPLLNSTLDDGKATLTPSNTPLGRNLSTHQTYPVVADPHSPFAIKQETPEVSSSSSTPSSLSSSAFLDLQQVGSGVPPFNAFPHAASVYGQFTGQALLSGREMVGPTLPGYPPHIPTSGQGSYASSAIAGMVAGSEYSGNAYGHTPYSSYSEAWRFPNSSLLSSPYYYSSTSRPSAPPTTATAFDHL

[8] = IGROV1 ovarian cancer cell cytotoxicity, dose response, PAX8 inhibitor project, plate reader, dry powder samples (AID 743043); assay type: functional, cell-based; settings: IGROV-1
[9] = cytotoxicity in OVCAR8 ovarian cancer cells, dose response, PAX8 project, cell-based, plate reader, dry powder samples (AID 743197); assay type: functional; settings: OVCAR-8
[10] = target: T3, RNA-binding protein pos-1 (Caenorhabditis elegans, UniProt G5EF15); experiment: inhibitors of POS-1/mex-3 RNA binding, dose response, biochemical, fluorescence polarization (AID 1964);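 note: purified POS-1 fused to maltose binding protein made in E. coli; potency of compounds blocking POS-1 binding to fluorescent RNA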
T3 sequence (G5EF15 whole entry): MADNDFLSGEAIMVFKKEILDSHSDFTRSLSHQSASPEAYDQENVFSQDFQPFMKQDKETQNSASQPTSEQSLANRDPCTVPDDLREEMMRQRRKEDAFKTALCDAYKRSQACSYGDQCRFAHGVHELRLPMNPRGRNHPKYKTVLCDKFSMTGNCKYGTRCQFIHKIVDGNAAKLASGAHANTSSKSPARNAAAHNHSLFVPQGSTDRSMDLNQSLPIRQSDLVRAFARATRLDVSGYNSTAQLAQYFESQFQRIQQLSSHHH

[11] = target: T4, Zinc finger protein mex-5 (Caenorhabditis elegans, UniProt Q9XUB2); experiment: MEX-5/TCR-2 RNA interaction inhibitors, dose response, biochemical, C. elegans, fluorescence polarization (AID 1960)
T4 sequence (Q9XUB2 whole entry): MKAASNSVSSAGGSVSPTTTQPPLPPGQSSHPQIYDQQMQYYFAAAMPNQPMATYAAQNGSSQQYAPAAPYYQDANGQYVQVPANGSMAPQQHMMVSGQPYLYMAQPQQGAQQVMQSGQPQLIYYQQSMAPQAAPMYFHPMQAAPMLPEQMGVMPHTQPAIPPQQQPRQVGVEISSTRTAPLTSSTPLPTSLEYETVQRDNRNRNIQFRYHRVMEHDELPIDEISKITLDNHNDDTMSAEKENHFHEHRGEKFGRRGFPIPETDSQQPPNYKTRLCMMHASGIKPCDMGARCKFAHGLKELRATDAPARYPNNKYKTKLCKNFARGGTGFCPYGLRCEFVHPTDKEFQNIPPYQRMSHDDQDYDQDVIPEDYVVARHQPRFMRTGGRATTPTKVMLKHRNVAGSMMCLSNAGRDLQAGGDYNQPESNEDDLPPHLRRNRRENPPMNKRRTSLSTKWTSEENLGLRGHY

Genome polyprotein = Genome polyprotein (dengue virus type 2, UniProt P29990); experiment: Dengue-2 NS5 methyltransferase inhibitors, primary screen, biochemical, confirmation dose response (AID 588689); assay type: functional
Chain of Genome polyprotein (P29990 2492-3391 limits assumed): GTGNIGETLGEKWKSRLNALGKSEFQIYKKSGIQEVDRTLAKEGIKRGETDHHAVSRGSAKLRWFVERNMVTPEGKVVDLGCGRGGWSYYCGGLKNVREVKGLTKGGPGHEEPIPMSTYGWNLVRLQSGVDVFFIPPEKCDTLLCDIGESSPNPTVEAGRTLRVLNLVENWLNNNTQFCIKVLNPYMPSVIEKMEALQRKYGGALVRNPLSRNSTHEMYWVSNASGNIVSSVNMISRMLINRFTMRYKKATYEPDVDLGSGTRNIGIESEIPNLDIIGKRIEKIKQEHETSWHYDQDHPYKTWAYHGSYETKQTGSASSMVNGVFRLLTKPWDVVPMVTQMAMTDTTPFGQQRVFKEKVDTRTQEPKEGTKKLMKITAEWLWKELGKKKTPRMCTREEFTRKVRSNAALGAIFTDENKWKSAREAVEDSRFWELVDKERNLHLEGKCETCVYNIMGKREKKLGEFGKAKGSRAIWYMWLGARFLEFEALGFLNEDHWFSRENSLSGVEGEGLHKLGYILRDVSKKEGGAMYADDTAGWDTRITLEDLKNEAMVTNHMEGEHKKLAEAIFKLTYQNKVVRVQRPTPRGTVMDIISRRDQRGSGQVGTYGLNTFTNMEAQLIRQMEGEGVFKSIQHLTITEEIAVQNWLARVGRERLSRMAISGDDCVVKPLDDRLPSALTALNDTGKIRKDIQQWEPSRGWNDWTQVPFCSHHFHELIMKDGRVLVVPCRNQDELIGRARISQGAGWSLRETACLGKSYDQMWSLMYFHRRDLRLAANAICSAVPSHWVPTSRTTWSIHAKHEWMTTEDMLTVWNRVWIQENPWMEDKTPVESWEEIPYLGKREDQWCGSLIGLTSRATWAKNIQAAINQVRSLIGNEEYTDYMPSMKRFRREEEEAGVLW

[12] = target: T5, Adenosylmethionine-8-amino-7-oxononanoate aminotransferase (Mycobacterium tuberculosis, UniProt P9WQ81); experiment: Mycobacterium tuberculosis BioA enzyme inhibitor Measured in Biochemical System Using Plate Reader - 2163-02_Inhibitor_Dose_CherryPick_Activity.; assay type: functional, Mycobacterium tuberculosis UT205
T5 sequence (P9WQ81 whole entry): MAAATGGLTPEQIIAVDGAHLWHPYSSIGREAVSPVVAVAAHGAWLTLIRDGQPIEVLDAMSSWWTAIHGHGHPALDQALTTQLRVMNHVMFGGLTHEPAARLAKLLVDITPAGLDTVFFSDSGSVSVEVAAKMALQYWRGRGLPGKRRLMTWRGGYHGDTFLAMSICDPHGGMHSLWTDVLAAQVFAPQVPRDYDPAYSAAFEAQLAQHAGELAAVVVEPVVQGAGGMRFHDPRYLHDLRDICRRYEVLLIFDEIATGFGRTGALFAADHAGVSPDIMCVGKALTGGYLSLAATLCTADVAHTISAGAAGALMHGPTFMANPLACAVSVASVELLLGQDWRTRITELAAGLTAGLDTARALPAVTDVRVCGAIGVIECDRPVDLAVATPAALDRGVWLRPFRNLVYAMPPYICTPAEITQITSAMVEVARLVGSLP

Coagulation factor XII = target: T6, Coagulation factor XII (Homo sapiens, UniProt P00748); assay type: functional;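 note: activated factor XIIa alpha cleaving a fluorogenic AMC peptide substrate; inhibitor potency from loss of enzyme activity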
T6 sequence (P00748 whole entry): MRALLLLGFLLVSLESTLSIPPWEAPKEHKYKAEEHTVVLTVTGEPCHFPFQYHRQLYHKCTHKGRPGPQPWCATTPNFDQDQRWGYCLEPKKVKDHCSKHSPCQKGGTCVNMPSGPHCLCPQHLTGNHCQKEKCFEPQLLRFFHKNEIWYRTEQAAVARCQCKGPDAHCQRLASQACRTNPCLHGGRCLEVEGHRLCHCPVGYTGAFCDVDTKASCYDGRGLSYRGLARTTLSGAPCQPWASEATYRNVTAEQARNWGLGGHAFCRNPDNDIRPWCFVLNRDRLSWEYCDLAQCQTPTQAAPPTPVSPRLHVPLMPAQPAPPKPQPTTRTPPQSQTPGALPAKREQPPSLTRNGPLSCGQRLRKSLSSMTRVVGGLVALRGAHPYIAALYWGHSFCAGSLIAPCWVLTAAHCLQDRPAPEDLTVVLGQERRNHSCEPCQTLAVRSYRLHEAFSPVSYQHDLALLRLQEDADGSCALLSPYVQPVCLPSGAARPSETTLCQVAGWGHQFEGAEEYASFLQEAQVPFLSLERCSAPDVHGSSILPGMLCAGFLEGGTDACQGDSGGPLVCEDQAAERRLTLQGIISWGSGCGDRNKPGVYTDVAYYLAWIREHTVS

[13] = system: Streptococcus sp. 'group A'; experiment: growth inhibition of control SK(-) GAS strain, dose response, counter-screen for streptokinase expression inhibitor project, luminescence, kanamycin, BacTiterGlo, confirmation (AID 1900); assay type: functional, organism-based
Streptococcus = experiment: Group A Streptococcus viability loss, dose response, counter-screen for streptokinase expression inhibitor project, luminescence, BacTiterGlo (AID 1915); assay type: functional, organism-based;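 note: potency for reduction of bacterial viability or growth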
[14] = target: T7, High affinity choline transporter 1 (Homo sapiens, UniProt Q9GZV3); experiment: CHT inhibitors, dose response, cell-based, 5-point CRC, membrane potential dye (AID 504840); assay type: functional
T7 sequence (Q9GZV3 whole entry): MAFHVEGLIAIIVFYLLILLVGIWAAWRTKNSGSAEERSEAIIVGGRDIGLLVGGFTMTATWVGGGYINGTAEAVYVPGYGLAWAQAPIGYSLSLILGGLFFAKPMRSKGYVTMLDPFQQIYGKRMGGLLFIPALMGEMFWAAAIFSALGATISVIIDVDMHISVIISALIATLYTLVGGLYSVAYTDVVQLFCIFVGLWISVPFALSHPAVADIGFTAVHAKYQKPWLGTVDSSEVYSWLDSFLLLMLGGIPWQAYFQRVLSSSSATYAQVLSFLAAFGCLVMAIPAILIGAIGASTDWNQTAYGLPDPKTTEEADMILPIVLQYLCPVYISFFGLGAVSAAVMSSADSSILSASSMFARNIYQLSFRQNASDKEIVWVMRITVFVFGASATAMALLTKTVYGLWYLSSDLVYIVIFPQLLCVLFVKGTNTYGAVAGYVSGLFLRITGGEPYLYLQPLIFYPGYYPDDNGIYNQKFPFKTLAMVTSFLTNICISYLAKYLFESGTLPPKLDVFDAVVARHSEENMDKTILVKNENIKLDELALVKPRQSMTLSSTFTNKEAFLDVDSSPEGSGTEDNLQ

T1 sequence (Q00975 whole entry): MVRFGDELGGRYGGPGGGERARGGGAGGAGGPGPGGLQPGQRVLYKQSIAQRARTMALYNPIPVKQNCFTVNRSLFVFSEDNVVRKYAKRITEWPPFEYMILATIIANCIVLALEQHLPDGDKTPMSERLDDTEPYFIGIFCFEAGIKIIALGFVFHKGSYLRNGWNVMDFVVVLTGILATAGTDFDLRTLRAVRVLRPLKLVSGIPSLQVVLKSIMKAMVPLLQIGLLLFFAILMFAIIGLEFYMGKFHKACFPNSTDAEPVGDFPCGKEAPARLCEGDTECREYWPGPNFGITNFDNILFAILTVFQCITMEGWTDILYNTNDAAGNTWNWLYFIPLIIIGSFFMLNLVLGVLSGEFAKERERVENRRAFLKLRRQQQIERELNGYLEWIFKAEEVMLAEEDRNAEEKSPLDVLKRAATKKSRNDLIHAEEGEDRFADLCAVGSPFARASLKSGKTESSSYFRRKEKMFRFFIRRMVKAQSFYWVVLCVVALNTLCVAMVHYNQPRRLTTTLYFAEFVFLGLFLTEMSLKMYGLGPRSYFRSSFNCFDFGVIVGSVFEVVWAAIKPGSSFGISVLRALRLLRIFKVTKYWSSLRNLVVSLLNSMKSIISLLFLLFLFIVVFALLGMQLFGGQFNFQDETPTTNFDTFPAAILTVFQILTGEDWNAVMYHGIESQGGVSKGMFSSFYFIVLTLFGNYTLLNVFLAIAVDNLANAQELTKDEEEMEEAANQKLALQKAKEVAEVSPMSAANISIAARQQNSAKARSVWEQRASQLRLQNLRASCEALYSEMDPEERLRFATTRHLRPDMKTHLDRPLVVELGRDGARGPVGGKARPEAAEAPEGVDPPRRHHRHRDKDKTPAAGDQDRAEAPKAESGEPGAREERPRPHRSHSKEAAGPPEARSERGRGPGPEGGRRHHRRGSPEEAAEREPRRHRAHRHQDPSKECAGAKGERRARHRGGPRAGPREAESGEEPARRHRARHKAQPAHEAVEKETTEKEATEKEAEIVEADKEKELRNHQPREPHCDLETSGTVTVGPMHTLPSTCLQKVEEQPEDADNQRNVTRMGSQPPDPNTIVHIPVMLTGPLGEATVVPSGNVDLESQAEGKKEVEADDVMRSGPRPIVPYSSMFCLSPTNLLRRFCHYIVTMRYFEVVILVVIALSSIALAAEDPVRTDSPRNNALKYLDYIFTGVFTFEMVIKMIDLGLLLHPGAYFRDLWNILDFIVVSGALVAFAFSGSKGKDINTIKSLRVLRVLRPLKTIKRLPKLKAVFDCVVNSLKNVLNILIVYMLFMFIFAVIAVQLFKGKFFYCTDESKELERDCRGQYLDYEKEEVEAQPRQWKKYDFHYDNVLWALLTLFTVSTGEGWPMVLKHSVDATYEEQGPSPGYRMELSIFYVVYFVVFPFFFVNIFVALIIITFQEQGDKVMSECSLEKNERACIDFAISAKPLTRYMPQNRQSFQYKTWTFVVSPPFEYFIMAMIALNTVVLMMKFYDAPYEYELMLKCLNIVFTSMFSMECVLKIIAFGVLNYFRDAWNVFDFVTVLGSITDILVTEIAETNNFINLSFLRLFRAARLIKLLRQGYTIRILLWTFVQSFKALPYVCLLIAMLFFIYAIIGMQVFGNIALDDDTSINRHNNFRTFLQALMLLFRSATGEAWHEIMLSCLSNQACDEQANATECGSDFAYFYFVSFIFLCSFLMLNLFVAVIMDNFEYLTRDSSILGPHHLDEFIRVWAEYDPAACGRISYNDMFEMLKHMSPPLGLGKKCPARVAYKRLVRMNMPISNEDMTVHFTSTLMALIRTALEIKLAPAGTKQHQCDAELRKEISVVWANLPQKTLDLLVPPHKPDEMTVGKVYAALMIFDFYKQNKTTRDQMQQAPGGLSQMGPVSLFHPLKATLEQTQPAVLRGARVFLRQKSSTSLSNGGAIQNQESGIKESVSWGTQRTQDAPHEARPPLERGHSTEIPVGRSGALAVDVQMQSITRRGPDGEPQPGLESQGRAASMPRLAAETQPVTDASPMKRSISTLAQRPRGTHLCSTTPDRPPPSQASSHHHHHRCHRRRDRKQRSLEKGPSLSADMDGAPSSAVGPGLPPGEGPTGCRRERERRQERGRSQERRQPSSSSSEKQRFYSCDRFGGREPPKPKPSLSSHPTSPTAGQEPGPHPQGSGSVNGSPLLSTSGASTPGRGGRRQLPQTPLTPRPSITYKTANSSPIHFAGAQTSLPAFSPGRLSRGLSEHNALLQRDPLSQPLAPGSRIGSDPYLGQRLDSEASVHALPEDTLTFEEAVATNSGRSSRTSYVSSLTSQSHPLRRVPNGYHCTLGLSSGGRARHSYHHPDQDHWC
T1 sequence (Q02410 whole entry): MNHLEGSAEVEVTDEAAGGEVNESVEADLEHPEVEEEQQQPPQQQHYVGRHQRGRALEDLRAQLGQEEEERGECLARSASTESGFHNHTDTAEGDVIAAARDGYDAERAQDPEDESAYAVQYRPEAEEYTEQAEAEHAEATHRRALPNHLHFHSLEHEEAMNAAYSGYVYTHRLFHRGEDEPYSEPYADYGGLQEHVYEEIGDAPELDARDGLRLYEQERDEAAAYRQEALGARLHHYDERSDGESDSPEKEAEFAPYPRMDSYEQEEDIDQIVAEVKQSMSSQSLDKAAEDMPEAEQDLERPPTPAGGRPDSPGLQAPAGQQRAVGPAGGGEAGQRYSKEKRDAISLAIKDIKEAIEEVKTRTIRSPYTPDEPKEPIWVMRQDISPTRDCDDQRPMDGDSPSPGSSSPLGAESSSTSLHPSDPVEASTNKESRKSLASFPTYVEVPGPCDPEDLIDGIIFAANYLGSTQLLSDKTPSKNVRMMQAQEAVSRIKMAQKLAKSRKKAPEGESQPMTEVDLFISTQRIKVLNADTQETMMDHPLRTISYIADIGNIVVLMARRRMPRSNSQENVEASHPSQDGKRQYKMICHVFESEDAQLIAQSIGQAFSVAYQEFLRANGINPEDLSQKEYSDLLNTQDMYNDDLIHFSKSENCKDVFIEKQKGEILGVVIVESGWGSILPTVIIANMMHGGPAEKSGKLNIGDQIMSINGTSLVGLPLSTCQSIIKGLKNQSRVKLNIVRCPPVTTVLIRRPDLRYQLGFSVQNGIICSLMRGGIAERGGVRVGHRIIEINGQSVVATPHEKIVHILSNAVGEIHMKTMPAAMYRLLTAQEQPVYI

O=C1c2ccccc2NC(c2cccc(Cl)c2)N1N=C1CCCCCC1 (stereo unspecified)
AC50 (HeLa): 200 µM (active)

CCc1nc2sc3c(=O)cc(O)[nH]c3c2cc1C
IC50 [1]: > 56.8 µM (not active)
IC50 [2]: 24.8 µM (active)

O=C(Cc1cccs1)Nc1nnc(CCc2ccccc2)s1
IC50 (Prothrombin): 25.4 µM (active)

CCOC(=O)C(/C=N/c1cccc(C)c1C)=C(/O)OCC
IC50 (Prothrombin): > 50 µM (not active)
IC50 [3]: 14 µM (not active)
AC50 (Cytochrome P450 2C9): inconclusive

O=C(CSCc1ccc(Cl)cc1)NCc1ccc2c(c1)OCO2
EC50 [4]: 4.2 µM (active)

C[C@]12CC[C@@H]3c4ccc(OC(=O)c5ccccc5)cc4CC[C@H]3[C@@H]1CCC2=O
AC50 (Cytochrome P450 3A4): 7.94 µM (inconclusive)

CC[C@H](C)/C=C(C)/C=C/C1=CC2=C(Cl)C(=O)[C@](C)(OC(C)=O)C(=O)C2=CO1 [SCLEROTIORIN]
AC50 [5]: 0.8 µM (active)

O=C(CNc1ccccc1OC(F)F)N1CCc2ccccc21
EC50 [6]: 0.103 µM (active)
EC50 [7]: 6 µM (active)
EC50 (H4): 4.45 µM (active)
AC50 (HeLa): 72.1 µM (active)

C[C@H](CO)N1C[C@H](C)[C@@H](CN(C)Cc2ccc(Oc3ccccc3)cc2)Oc2ccc(NS(=O)(=O)c3ccc(F)cc3)cc2CC1=O
AC50 (Paired box protein Pax-8): 6.47 µM (active)
AC50 [8]: 40 µM (active)
AC50 [9]: 63.3 µM (active)

O=[N+]([O-])c1ccc2c3c(cccc13)CC2
AC50 (Cytochrome P450 3A4): 31.6 µM (inconclusive)

CC1=NOC(=O)/C1=C\c1ccc2c(c1)OCO2
EC50 [10]: > 300 µM (not active)
EC50 [11]: > 300 µM (not active)
IC50 (Genome polyprotein): 7.17 µM (active)

COC(=O)c1ccccc1NC(=O)C1CC(=O)N(c2ccc(F)cc2)C1 (stereo unspecified)
IC50 (Prothrombin): > 50 µM (not active)

O=C(c1ccncc1)N1CC[C@H]2[C@H](CO)Nc3ccc(Br)cc3[C@H]21
AC50 [12]: 18.5 µM (active)

O=c1c2ccccc2nc(N2CCN(c3ccccc3)CC2)n1Cc1ccccc1
EC50 [4]: 9.51 µM (active)

COc1ccc2nc(NC(=O)/C=C/c3ccc4c(c3)OCO4)sc2c1
IC50 [1]: 19.5 µM (active)
IC50 [2]: 41.5 µM (active)

c1ccn(-c2ccc(-c3cc[nH]n3)cc2)c1
AC50 (HeLa): 90.9 µM (active)

CCn1c(C)nc2cc(C(=O)NN=C(S)Nc3ccc(C)cc3)ccc21
IC50 (Prothrombin): > 50 µM (not active)
IC50 (Coagulation factor XII): > 50 µM (inactive)

CC1=C(C(=O)OCc2ccccc2)C(c2ccc(C3CCCCC3)cc2)NC(=O)N1CCCCCC(=O)O (stereo unspecified)
AC50 (Cytochrome P450 3A4): 7.94 µM (inconclusive)

Cc1cc(/C=C2\SC(=S)NC2=O)c(C)n1-c1ccc(O)cc1
EC50 [13]: 1.69 µM (active)
EC50 (Streptococcus): 2.36 µM (active)
AC50 [5]: 15.5 µM (active)

CCOC(=O)c1ccc(NC(=O)CC2C(=O)OCCN2CC)cc1 (stereo unspecified)
AC50 [5]: 4.65 µM (active)

O=[N+]([O-])c1ccc(S(=O)(=O)Nc2nc(-c3ccccc3)cs2)cc1
IC50 [14]: 4.57 µM (active)
IC50 (Genome polyprotein): 59.6 µM (active)

COc1cc(/C=N/O)ccc1OCc1ccccc1Cl
AC50 (HeLa): 40.7 µM (active)

CN(C[C@H]1N[C@@H](CO)[C@@H]1c1ccc(-c2cccc(F)c2)cc1)S(C)(=O)=O
AC50 (Paired box protein Pax-8): 10.3 µM (active)
AC50 [8]: 14.9 µM (active)
AC50 [9]: 23.7 µM (active)

Nc1c(Br)cc([N+](=O)[O-])cc1[N+](=O)[O-]
AC50 (Cytochrome P450 3A4): 25.1 µM (inconclusive)

COc1ccc(Cl)cc1NC(=O)c1nnn(CC(=O)Nc2ccc(OC)c(OC)c2)c1N
IC50 [1]: > 56.8 µM (not active)
IC50 [2]: > 50 µM (inactive)

CCCC(=O)n1nc(-c2cccnc2)nc1NCc1ccccc1
IC50 (Prothrombin): 0.00538 µM (active)

COc1cc(NC(=O)c2ccc(F)cc2)ccc1NC(=O)c1cc2ccccc2o1
IC50 [1]: 4.02 µM (active)
IC50 [2]: > 50 µM (inactive)

Reference: ChEMBL document CHEMBL1201862, “PubChem BioAssay data set” (2004)
